# In US20070004660A1, “Synergistic Modulation of Flt3 Kinase Using Alkylquinolines and Alkylquinazolines” (priority 2005, published 2007):
# Legend:
# [1] = molecular target: T1, isolated kinase domain of the human FLT3 receptor (a.a. 571-993) (Homo sapiens, UniProt P36888); test: FLT3 fluorescence polarization kinase assay; type: biochemical; details: 150 uM ATP; uncertainty ±10%
# T1 construct: human FLT3 receptor (a.a. 571-993)
# T1 sequence (P36888 571-993): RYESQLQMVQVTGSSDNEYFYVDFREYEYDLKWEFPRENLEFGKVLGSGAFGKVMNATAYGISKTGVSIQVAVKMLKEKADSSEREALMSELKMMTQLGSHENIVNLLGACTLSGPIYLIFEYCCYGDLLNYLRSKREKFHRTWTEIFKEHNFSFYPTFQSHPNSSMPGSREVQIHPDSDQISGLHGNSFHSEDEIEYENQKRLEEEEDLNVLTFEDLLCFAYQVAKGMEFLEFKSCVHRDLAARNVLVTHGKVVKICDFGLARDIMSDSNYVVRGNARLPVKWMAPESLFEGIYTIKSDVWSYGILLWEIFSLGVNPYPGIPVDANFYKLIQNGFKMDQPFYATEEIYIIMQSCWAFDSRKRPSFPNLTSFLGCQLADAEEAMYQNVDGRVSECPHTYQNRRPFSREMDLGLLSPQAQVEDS
# Experimental: The FLT3 FP assay utilizes the fluorescein-labeled phosphopeptide and the anti-phosphotyrosine antibody included in the Panvera Phospho-Tyrosine Kinase Kit (Green) supplied by Invitrogen. When FLT3 phosphorylates polyGlu4Tyr, the fluorescein-labeled phosphopeptide is displaced from the anti-phosphotyrosine antibody by the phosphorylated poly Glu4Tyr, thus decreasing the FP value. The FLT3 kinase reaction is incubated at room temperature for 30 minutes under the following conditions: 10 nM FLT3 571-993, 20 ug/mL poly Glu4Tyr, 150 uM ATP, 5 mM MgCl2, 1% compound in DMSO. The kinase reaction is stopped with the addition of EDTA. The fluorescein-labeled phosphopeptide and the anti-phosphotyrosine antibody are added and incubated for 30 minutes at room temperature.
# All data points are an average of triplicate samples. Inhibition and IC50 data analysis was done with GraphPad Prism using a non-linear regression fit with a multiparamater, sigmoidal dose-response (variable slope) equation.
# wild-type FLT3 receptor = molecular target: T2, wild-type FLT3 receptor (Homo sapiens, UniProt P36888); test: Cell-based FLT3 receptor ELISA (FLT ligand-induced phosphorylation in Baf3 FLT3 cells); details: 100 ng/mL Flt ligand, uncertainty ±20%
# T2 construct: host or cells: Baf3 (murine B cell lymphoma line), stably transfected
# T2 sequence (P36888 27-993): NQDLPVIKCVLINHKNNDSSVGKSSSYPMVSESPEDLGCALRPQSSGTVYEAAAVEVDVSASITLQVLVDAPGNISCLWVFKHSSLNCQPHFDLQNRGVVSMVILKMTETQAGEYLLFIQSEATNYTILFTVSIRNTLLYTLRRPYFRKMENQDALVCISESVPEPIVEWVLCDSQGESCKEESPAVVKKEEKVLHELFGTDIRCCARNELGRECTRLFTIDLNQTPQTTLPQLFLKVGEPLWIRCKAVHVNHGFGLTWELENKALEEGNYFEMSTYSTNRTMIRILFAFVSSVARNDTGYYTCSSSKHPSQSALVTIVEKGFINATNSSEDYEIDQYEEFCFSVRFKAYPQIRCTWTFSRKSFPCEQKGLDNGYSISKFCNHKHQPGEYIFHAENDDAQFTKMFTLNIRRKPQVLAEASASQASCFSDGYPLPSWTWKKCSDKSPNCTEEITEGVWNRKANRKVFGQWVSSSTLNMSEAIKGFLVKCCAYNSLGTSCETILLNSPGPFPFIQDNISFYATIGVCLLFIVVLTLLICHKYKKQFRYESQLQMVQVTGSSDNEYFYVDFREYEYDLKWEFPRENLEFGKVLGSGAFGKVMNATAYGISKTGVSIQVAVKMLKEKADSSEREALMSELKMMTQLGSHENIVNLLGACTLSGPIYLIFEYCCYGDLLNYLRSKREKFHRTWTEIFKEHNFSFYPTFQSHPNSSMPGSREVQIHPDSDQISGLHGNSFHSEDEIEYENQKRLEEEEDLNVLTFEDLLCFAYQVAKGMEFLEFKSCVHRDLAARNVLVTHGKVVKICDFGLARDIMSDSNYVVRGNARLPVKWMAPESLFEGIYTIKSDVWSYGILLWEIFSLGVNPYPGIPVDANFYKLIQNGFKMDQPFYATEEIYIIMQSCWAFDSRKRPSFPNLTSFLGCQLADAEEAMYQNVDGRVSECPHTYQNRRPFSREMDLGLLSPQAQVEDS
# Experimental: Specific cellular inhibition of FLT ligand-induced wild-type FLT3 phosphorylation was measured in the following manner: Baf3 FLT3 cells overexpressing the FLT3 receptor were obtained from Dr. Michael Heinrich (Oregon Health and Sciences University). The Baf3 FLT3 cell lines were created by stable transfection of parental Baf3 cells (a murine B cell lymphoma line dependent on the cytokine IL-3 for growth) with wild-type FLT3. Cells were selected for their ability to grow in the absence of IL-3 and in the presence of FLT3 ligand. Baf3 cells were maintained in RPMI 1640 with 10% FBS, penn/strep and 10 ng/ml FLT ligand at 37° C., 5% CO2. To measure direct inhibition of the wild-type FLT3 receptor activity and phosphorylation a sandwich ELISA method was developed similar to those developed for other RTKs (see Sadick, M D, Sliwkowski, M X, Nuijens, A, Bald, L, Chiang, N, Lofgren, J A, Wong W L T. Analysis of Heregulin-Induced ErbB2 Phosphorylation with a High-Throughput Kinase Receptor Activation Enzyme-Linked Immunsorbent Assay, Analytical Biochemistry. 1996; 235:207-214 and Baumann C A, Zeng L, Donatelli R R, Maroney A C. Development of a quantitative, high-throughput cell-based enzyme-linked immunosorbent assay for detection of colony-stimulating factor-1 receptor tyrosine kinase inhibitors. J Biochem Biophys Methods. 2004; 60:69-79.). 200 μL of Baf3FLT3 cells (1×10^6 /mL) were plated in 96 well dishes in RPMI 1640 with 0.5% serum and 0.01 ng/mL IL-3 for 16 hours prior to 1 hour compound or DMSO vehicle incubation. Cells were treated with 100 ng/mL Flt ligand (R&D Systems Cat# 308-FK) for 10 min. at 37° C. Cells were pelleted, washed and lysed in 100 ul lysis buffer (50 mM Hepes, 150 mM NaCl, 10% Glycerol, 1% Triton-X-100, 10 mM NaF, 1 mM EDTA, 1.5 mM MgCl2, 10 mM NaPyrophosphate) supplemented with phosphatase (Sigma Cat# P2850) and protease inhibitors (Sigma Cat #P8340). Lysates were cleared by centrifugation at 1000×g for 5 minutes at 4° C. Cell lysates were transferred to white wall 96 well microtiter (Costar #9018) plates coated with 50 ng/well anti-FLT3 antibody (Santa Cruz Cat# sc-480) and blocked with SeaBlock reagent (Pierce Cat#37527). Lysates were incubated at 4° C. for 2 hours. Plates were washed 3× with 200 ul/well PBS/0.1% Triton-X-100. Plates were then incubated with 1:8000 dilution of HRP-conjugated anti-phosphotyrosine antibody (Clone 4G10, Upstate Biotechnology Cat#16-105) for 1 hour at room temperature. Plates were washed 3× with 200 ul/well PBS/0.1% Triton-X-100. Signal detection with Super Signal Pico reagent (Pierce Cat#37070) was done according to manufacturer's instruction with a Berthold microplate luminometer. All data points are an average of triplicate samples. […] Inhibition and IC50 data analysis was done with GraphPad Prism using a non-linear regression fit with a multiparamater, sigmoidal dose-response (variable slope) equation.
# MV4-11 cells = test: Inhibition of MV4-11 cell proliferation (CellTiterGlo, 72 h); type: cell-based; details: Homo sapiens; 72 h growth inhibition; uncertainty ±20%
# Experimental: MV4-11 cells cannot grow and survive without active FLT3ITD.
# To measure proliferation inhibition by test compounds, the luciferase based CellTiterGlo reagent (Promega), which quantifies total cell number based on total cellular ATP concentration, was used. Cells are plated at 10,000 cells per well in 100 ul of in RPMI media containing penn/strep, 10% FBS and 1 ng/ml GM-CSF or 1 ng/ml IL-3 for MV4-11 and Baf3 cells respectively.
# Compound dilutions or 0.1% DMSO (vehicle control) are added to cells and the cells are allowed to grow for 72 hours at standard cell growth conditions (37° C., 5% CO2). For activity measurements in MV4-11 cells grown in 50% plasma, cells were plated at 10,000 cells per well in a 1:1 mixture of growth media and human plasma (final volume of 100 μL). To measure total cell growth an equal volume of CellTiterGlo reagent was added to each well, according to the manufacturer's instructions, and luminescence was quantified. Total cell growth was quantified as the difference in luminescent counts (relative light units, RLU) of cell number at Day 0 compared to total cell number at Day 3 (72 hours of growth and/or compound treatment). One hundred percent inhibition of growth is defined as an RLU equivalent to the Day 0 reading. Zero percent inhibition was defined as the RLU signal for the DMSO vehicle control at Day 3 of growth. All data points are an average of triplicate samples. […] Inhibition and IC50 data analysis was done with GraphPad Prism using a non-linear regression fit with a multiparamater, sigmoidal dose-response (variable slope) equation.
# MV4-11 cells express the FLT3 internal tandem duplication mutation, and thus are entirely dependent upon FLT3 activity for growth. […] In contrast, the Baf3 cell proliferation is driven by the cytokine IL-3 and thus are used as a non-specific toxicity control for test compounds.
SMILES,IC50 [1] [µM],IC50 (wild-type FLT3 receptor) [µM],IC50 (MV4-11 cells) [µM]
"COC[C@H]1CCCN1c1ccc2c(C3CCN(C(=O)Nc4ccc(N5CCOCC5)cc4)CC3)ncnc2c1 [Example 130, (R)-4-[7-(2-Methoxymethyl-pyrrolidin-1-yl)-quinazolin-4-yl]-piperidine-1-carboxylic acid (4-morpholin-4-yl-phenyl)-amide]",0.626,0.586,
"O=C(Nc1ccc(N2CCOCC2)cc1)N1CCC(c2ncnc3cc(OCCCN4CCNCC4)ccc23)CC1 [Example 123, 4-[7-(3-Piperazin-1-yl-propoxy)-quinazolin-4-yl]-piperidine-1-carboxylic acid (4-morpholin-4-yl-phenyl)-amide]",0.008,0.002,
"COc1cc2ncnc(C3CCN(C(=O)Nc4ccc(Cl)cc4)CC3)c2cc1OC [Example 49, 4-(6,7-Dimethoxy-quinazolin-4-yl)-piperidine-1-carboxylic acid (4-chloro-phenyl)-amide]",,> 3,7
"COc1cc2ncnc(C3CCN(C(=O)Nc4ccc(C5CCNCC5)cc4)CC3)c2cc1OC [Example 64, 4-(6,7-Dimethoxy-quinazolin-4-yl)-piperidine-1-carboxylic acid (4-piperidin-4-yl-phenyl)-amide]",,0.357,0.33
"CN1CCC(Oc2ccc3c(C4CCN(C(=O)Nc5ccc(N6CCOCC6)cc5)CC4)ncnc3c2)CC1 [Example 127, 4-[7-(1-Methyl-piperidin-4-yloxy)-quinazolin-4-yl]-piperidine-1-carboxylic acid (4-morpholin-4-yl-phenyl)-amide]",0.26,0.037,
